Publication PMC12020230 (Fluids and Barriers of the CNS, 2025)

Assays:
[1] = system: choroid plexus; experiment: ^86Rb^+ efflux from excised choroid plexus upon PKA inhibition; assay type: cell-based, rat; conditions: H89 50 µM vs control, n = 5 of each, P < 0.01
[2] = system: patients; conditions: midazolam anaesthesia, ref [48]; cited from earlier work
[3] = system: idiopathic intracranial hypertension (IIH) patients; conditions: small clinical trial, ref [27]; cited from earlier work
[4] = ref [58]; cited from earlier work

For `O=S(=O)(NCCNC/C=C/c1ccc(Br)cc1)c1cccc2cnccc12` [H89], the “reduction of K^+ efflux across the luminal membrane” value [1] was 25%.
For `Cc1ncc2n1-c1ccc(Cl)cc1C(c1ccccc1F)=NC2` [midazolam], the “effect on ICP and perfusion pressure” value [2] is listed as “reported to modulate ICP and perfusion pressure in patients”.
In the case of “Exenatide: GLP-1R agonist Exenatide, which has the same amino acid sequence as Ex4”, the ICP reductions [3] is given as 1–3 mmHg.
For “semaglutide: another GLP-1 receptor agonist, semaglutide”, the “risk of NAION” value [4] is given as “associated with increased risk of non-arteritic anterior ischemic optic neuropathy (NAION)”.
